Laboratory results published in patent US7439253B2, “Heterocyclic compounds, their preparation and their use as medicaments, in particular as antibacterials and beta-lactamase inhibitors” (Novexel, priority 2002, dated 2008).
Structures can show the parent of a compound that is named as a salt. Where two headings read alike, the source gives them in different places.

Columns and labels:
[1] = target: T1, β-lactamase TEM1 (Escherichia coli, UniProt P62593); assay: β-lactamase inhibiting activity (Nitrocefin hydrolysis); format: biochemical, E. coli 250HT21
T1 construct: The β-lactamases are isolated from bacterial strains resistant to penicillins and to cephalosporins; endogenous in cells; host or cells: E. coli 250HT21 (soluble fraction of French-press lysate, 100 000 G supernatant)
Method: (§1) A. Preparation of the β-lactamases Tem˜1 and P99
(§2) The β-lactamases are isolated from bacterial strains resistant to penicillins and to cephalosporins (Tem1 and P99 are produced by E. coli 250HT21 and E. Cloacae 293HT6, respectively).
(§3) The bacteria are cultured in heart-brain broth at 37 g/l (DIFCO), at 37° C. They are harvested at the end of the exponential phase, cooled and centrifuged. The bacterial pellets are taken up in 50 mM sodium phosphate buffer pH 7.0 and again centrifuged. The bacteria are taken up in two volumes of this same buffer and lyzed by means of a French-Press kept at 4° C. After centrifugation for 1 h at 100 000 G, at 4° C., the supernatants containing the soluble fraction of the bacterial extracts are recovered and frozen at −80° C.
(§4) B. Determination of the β-lactamase Activity
(§5) The method uses, as substrate, Nitrocefin (OXOID), a chromogenic cephalosporin, whose product of hydrolysis by Beta-lactamases is red and absorbs at 485 nm. The β-lactamase activity is kinetically determined by measuring the variation in absorbance at 485 nm resulting from the hydrolysis of the substrate on a plate spectrophotometer (Spectra Max Plus from Molecular Devices). The experiments are performed at 37° C. The quantity of enzyme was normalized and the measurements are performed at the initial speed.
(§6) C. Determination of the β-lactamase Inhibiting Activity
(§7) Two measurements are carried out, without preincubation and with preincubation of the enzyme and of the inhibitor (5 min), in order to test the irreversibility of the reaction. The products are tested at 6 or 8 concentrations in duplicate. The reaction mixture contains 100 μM of Nitrocefin and 50 mM sodium phosphate buffer pH 7.0. D. Calculations of the IC50 Values
(§8) The rates of hydrolysis are measured with and without inhibitor. The concentration of inhibitor which inhibits by 50% the reaction of hydrolysis of Nitrocefin by the enzyme (IC50) is determined. The data processing is carried out with the aid of the GraFit software (Erathycus Software).

[2] = target: T2, β-lactamase P99 (Enterobacter cloacae, UniProt P05364); assay: biochemical; format: biochemical
T2 construct: The β-lactamases are isolated from bacterial strains resistant to penicillins and to cephalosporins; endogenous in cells; host or cells: E. cloacae 293HT6 (soluble fraction of French-press lysate, 100 000 G supernatant)
Method: as §1, §2, §3, §4, §5, §6, §7, §8

[3] = 100 μM Nitrocefin, 50 mM sodium phosphate buffer pH 7.0, 37° C., read-out: IC50 nM/TEM1
[4] = 100 μM Nitrocefin, 50 mM sodium phosphate buffer pH 7.0, 37° C.

T2 sequence (P05364 21-381): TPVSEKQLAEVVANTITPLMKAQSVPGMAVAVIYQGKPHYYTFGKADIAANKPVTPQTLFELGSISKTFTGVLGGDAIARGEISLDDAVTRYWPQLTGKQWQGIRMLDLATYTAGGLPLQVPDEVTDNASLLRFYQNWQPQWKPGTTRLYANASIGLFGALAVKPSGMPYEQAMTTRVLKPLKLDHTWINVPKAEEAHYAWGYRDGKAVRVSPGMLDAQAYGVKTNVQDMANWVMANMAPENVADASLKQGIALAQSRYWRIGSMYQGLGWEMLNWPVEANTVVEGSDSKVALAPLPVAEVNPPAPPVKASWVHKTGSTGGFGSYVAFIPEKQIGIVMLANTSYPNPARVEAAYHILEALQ
T1 sequence (P62593 24-286 limits assumed): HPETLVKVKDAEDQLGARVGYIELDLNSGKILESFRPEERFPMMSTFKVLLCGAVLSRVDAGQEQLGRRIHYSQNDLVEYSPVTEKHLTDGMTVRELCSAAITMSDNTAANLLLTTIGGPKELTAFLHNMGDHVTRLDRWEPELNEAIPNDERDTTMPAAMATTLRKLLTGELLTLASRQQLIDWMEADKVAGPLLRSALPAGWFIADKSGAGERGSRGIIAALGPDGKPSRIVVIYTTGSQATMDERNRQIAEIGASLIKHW

With `COC(=O)[C@@H]1c2nn(Cc3ccccc3)cc2[C@H]2CN1C(=O)N2OS(=O)(=O)O` (relative stereo) [Example 1, triethylammonium salt of methyl trans-2,5,6,8-tetrahydro-6-oxo-2-(phenylmethyl)-5-(sulfoxy)-4H-4,7-methanopyrazolo[3,4-e][1,3]diazepine-8-carboxylate] the IC50 [1, 3] was 3 nM and the IC50 [2, 4] was 5 nM.

Work on `COC(=O)[C@@H]1c2nn(CCc3ccccc3)cc2[C@H]2CN1C(=O)N2OS(=O)(=O)O` (relative stereo) [Example 3, Triethylammonium Salt of Methyl trans-2,5,6,8-tetrahydro-6-oxo-2-(2-phenylethyl)-5-(sulfoxy)-4H-4,7-methanopyrazolo[3,4-e][1,3]diazepine-8-carboxylate] yielded an IC50 [1, 3] of 2 nM and an IC50 [2, 4] of 11 nM.

Work on `CCOC(=O)Cn1cc2c(n1)[C@@H](C(=O)OC)N1C[C@H]2N(OS(=O)(=O)O)C1=O` (relative stereo) [Example 5, Triethylammonium Salt of Ethyl Trans-5,6-dihydro-8-(methoxycarbonyl)-6-oxo-5-(sulfoxy)-4H-4,7-methanopyrazolo[3,4-e][1,3]diazepine-2(8H)-acetate] yielded an IC50 [1, 3] of 13 nM and an IC50 [2, 4] of 17 nM.

In the case of `COC(=O)[C@@H]1c2nn(CC(=O)O)cc2[C@H]2CN1C(=O)N2OS(=O)(=O)O` (relative stereo) [Example 9, Di(triethylammonium) Salt of Trans-5,6-dihydro-8-(methoxycarbonyl)-6-oxo-5-sulfoxy-4H-4,7-methanopyrazolo[3,4-e][1,3]diazepine-2(8H)-acetic acid], the IC50 [1, 3] is reported as 60 nM and the IC50 [2, 4] is reported as 50 nM.

`COC(=O)[C@@H]1c2c(cnn2C(N)=O)[C@@H]2CN1C(=O)N2OS(=O)(=O)O` (relative stereo) [Example 10, Pyridinium Salt of Methyl Trans-1-(aminocarbonyl)-4,5,6,8-tetrahydro-6-oxo-5-(sulfoxy)-1H-4,7-methanopyrazolo[3,4-e][1,3]diazepine-8-carboxylate] showed an IC50 [1] of 12 nM and an IC50 [2, 4] of 18 nM.

Compound `COC(=O)[C@@H]1c2sc(C(N)=O)cc2[C@H]2CN1C(=O)N2OS(=O)(=O)O` (relative stereo) [Example 21, Sodium Salt of Methyl Trans-2-(aminocarbonyl)-4,5,6,8-tetrahydro-6-oxo-5-(sulfoxy)-4,7-methano-7H-thieno[2,3-e][1,3]diazepine-8-carboxylate] has an IC50 [1, 3] of 7 nM and an IC50 [2, 4] of 69 nM.

Work on `Cc1ccccc1-c1cc2c(s1)[C@@H](C(N)=O)N1C[C@H]2N(OS(=O)(=O)O)C1=O` (relative stereo) [Example 24, Sodium Salt of Trans-4,5,6,8-tetrahydro-2-(2-methylphenyl)-6-oxo-5-(sulfoxy)-4,7-methano-7H-thieno[2,3-e][1,3]diazepine-8-carboxamide] yielded an IC50 [1, 3] of 2 nM and an IC50 [2, 4] of 10 nM.

For `NC(=O)[C@@H]1c2sc(-c3ccccc3C(F)(F)F)cc2[C@H]2CN1C(=O)N2OS(=O)(=O)O` (relative stereo) [Example 25, Sodium Salt of Trans-4,5,6,8-tetrahydro-6-oxo-5-(sulfoxy)-2-[2-(trifluoromethyl)phenyl]-4,7-methano-7H-thieno[2,3-e][1,3]diazepine-8-carboxamide], the IC50 [1, 3] was 2 nM and the IC50 [2, 4] was 6 nM.

`CCc1ccccc1-c1cc2c(s1)[C@@H](C(N)=O)N1C[C@H]2N(OS(=O)(=O)O)C1=O` (relative stereo) [Example 26, Sodium Salt of Trans-2-(2-ethylphenyl)-4,5,6,8-tetrahydro-6-oxo-5-(sulfoxy)-4,7-methano-7H-thieno[2,3-e][1,3]diazepine-8-carboxamide] was tested, and the IC50 [1, 3] was 1 nM and the IC50 [2, 4] was 6 nM.

For `CCOC(=O)[C@H]1c2cccc(OC(=O)Nc3ccccc3)c2[C@@H]2CN1C(=O)N2OS(=O)(=O)O` (relative stereo) [Example 28, Sodium Salt of Ethyl Trans-1,2,3,5-tetrahydro-3-oxo-9-[[(phenylamino)carbonyl]oxy]-2-(sulfoxy)-1,4-methano-4H-2,4-benzodiazepine-5-carboxylate], the IC50 [1, 3] was 33 nM and the IC50 [2, 4] was 25 nM.

In the case of `COCCOCOc1ccc2c(c1)[C@@H]1CN(C(=O)N1OS(=O)(=O)O)[C@H]2C(=O)NOC` (relative stereo) [Example 33, Sodium Salt of Trans-1,2,3,5-tetrahydro-N-methoxy-8-[(2-methoxyethoxy)methoxy]-3-oxo-2-(sulfoxy)-1,4-methano-4H-2,4-benzodiazepine-5-carboxamide], the IC50 [1, 3] is reported as 56 nM and the IC50 [2, 4] is reported as 17 nM.

`CCNC(=O)Oc1ccc2c(c1)[C@@H]1CN(C(=O)N1OS(=O)(=O)O)[C@H]2C(=O)OCC` (relative stereo) [Example 38, Sodium Salt of Ethyl Trans-8-[[(ethylamino)carbonyl]oxy]-1,2,3,5-tetrahydro-3-oxo-2-(sulfoxy)-1,4-methano-4H-2,4-benzodiazepine-5-carboxylate] gave an IC50 [1, 3] of 59 nM and an IC50 [2, 4] of 19 nM.

`CCOC(=O)[C@H]1c2ccc(OS(=O)(=O)C(F)(F)F)cc2[C@@H]2CN1C(=O)N2OS(=O)(=O)O` (relative stereo) [Example 40, Sodium Salt of ethyl trans-1,2,3,5-tetrahydro-3-oxo-2-(sulfoxy)-8-[[(triluoromethyl)sulfonyl]oxy]-1,4-methano-4H-2,4-benzodiazepine-5-carboxylate] was tested, and the IC50 [1, 3] was 11 nM and the IC50 ([2]; pH 7) was 12 nM.

Work on `NC(=O)[C@H]1c2ccc(OCCOS(=O)(=O)O)cc2[C@@H]2CN1C(=O)N2OS(=O)(=O)O` (relative stereo) [Example 41, Disodium Salt of trans-1,2,3,5-tetrahydro-3-oxo-2-(sulfoxy)-8-[2-(sulfoxy)ethoxy]-1,4-methano-4H-2,4-benzodiazepine-5-carboxamide] yielded an IC50 [1, 3] of 9 nM and an IC50 [2, 4] of 29 nM.

`CCOC(=O)[C@@H]1c2c(-c3ccc(F)cc3)csc2[C@H]2CN1C(=O)N2OS(=O)(=O)O` (relative stereo) [Example 44, Sodium Salt of ethyl trans-3-(4-fluorophenyl)-4,6,7,8-tetrahydro-6-oxo-7-(sulfoxy)-5,8-methano-5H-thieno[2,3-e][1,3]diazepine-4-carboxylate] was tested, and the IC50 [1, 3] was 34 nM and the IC50 ([2]; pH 7) was 2 nM.

With `NC(=O)[C@@H]1c2c(cnn2-c2ccccc2)[C@H]2CN1C(=O)N2OS(=O)(=O)O` (relative stereo) [Example 47, Sodium Salt of trans-4,5,6,8-tetrahydro-6-oxo-1-phenyl-5-(sulfoxy)-1H-4,7-methanopyrazolo[3,4-e][1,3]diazepine-8-carboxamide] the IC50 [1, 3] was 12 nM and the IC50 [2, 4] was 3 nM.

`COC(=O)C1c2c(cnn2CCc2ccccc2)C2CN1C(=O)N2OS(=O)(=O)O` (stereo not drawn) [Example 2, Triethylammonium Salt of Methyl trans-4,5,6,8-tetrahydro-6-oxo-1-(phenylethyl)-5-(sulfoxy)-1H-4,7-methanopyrazolo[3,4-e][1,3]diazepine-8-carboxylate] was tested, and the IC50 [1] was 16 nM and the IC50 [2, 4] was 20 nM.

In the case of `CCOC(=O)Cn1ncc2c1C(C(=O)OC)N1CC2N(OS(=O)(=O)O)C1=O` (stereo not drawn) [Example 4, Triethylammonium Salt of Ethyl Trans-4,5,6,8-tetrahydro-8-(methoxycarbonyl)-6-oxo-5-(sulfoxy)-1H-4,7-methanopyrazolo[3,4-e][1,3]diazepine-1-acetate], the IC50 [1] is reported as 34 nM and the IC50 [2, 4] is reported as 7 nM.

`NC(=O)C1c2nn(C(=O)Nc3ccccc3)cc2C2CN1C(=O)N2OS(=O)(=O)O` (stereo not drawn) [Example 7, Triethylammonium Salt of 5,6-dihydro-6-oxo-N-2-phenyl-5-(sulfoxy)-4H-4,7-methanopyrazolo[3,4-e][1,3]diazepine-2,8(8H)-dicarboxamide] gave an IC50 [1, 3] of 1 nM and an IC50 [2, 4] of 14 nM.

`COC(=O)C1c2nn(C(N)=O)cc2C2CN1C(=O)N2OS(=O)(=O)O` (stereo not drawn) [Example 11, Pyridinium Salt of Methyl Trans-2-(aminocarbonyl)-2,5,6,8-tetrahydro-6-oxo-5-(sulfoxy)-4H-4,7-methanopyrazolo[3,4-e][1,3]diazepine-8-carboxylate] showed an IC50 [1] of 11 nM and an IC50 [2, 4] of 39 nM.

For `COc1ccc(Cn2ncc3c2CN2CC3N(OS(=O)(=O)O)C2=O)cc1` (stereo not drawn) [Example 18, Sodium Salt of 1,4,5,8-tetrahydro-1-[(4-methoxyphenyl)methyl]-5-(sulfoxy)-6H-4,7-methanopyrazolo[3,4-e][1,3]diazepin-6-one], the IC50 [1, 3] was 5 nM and the IC50 [2, 4] was 13 nM.
